# Calls of active or inactive are those of the source. No cut-off for these calls is given here.
# How the values were obtained:
# [1] = Immunosuppressive activity in BALB/c mouse splenic T cells assessed as inhibition of PMA/CD28 induced cell proliferation after 24 hrs by [methyl-3H]thymidine incorporation assay; format: functional, cell-based
# [2] = target: T1, Bromodomain-containing protein 4 (Homo sapiens, UniProt O60885); assay: (§1) Competitive inhibition of BRD4 in PMA /ionomycin activated human Jurkat cell lysate in presence of (S)-4-{3'-Cyano-4'-[3-(3-{2-[5-((3aR,6S,6aS)-2-oxo-hexahydro-thieno[3,4-d]imidazol-6-yl)-pentanoylamino]-ethyldisulfanyl}-propionylamino)-propoxy]-biphenyl-4-yl}-2,3,9-trimethyl-6H-1-thia-5,7,8,9a-tetraaza-cyclopenta[e]azulene-6-yl]acetic acid ethyl ester/avidin-resin by pull down assay; format: cell-based
# [3] = target: Bromodomain-containing protein 2 (Homo sapiens) (UniProt P25440); assay: as §1, with “BRD2” for “BRD4”; format: cell-based
# [4] = target: Bromodomain-containing protein 3 (Homo sapiens) (UniProt Q15059); assay: as §1, with “BRD3” for “BRD4”; format: cell-based
# [5] = Cytotoxicity against mouse M1 cells after 72 hrs by WST-8 assay; format: functional; details: M1, 72 h
# [6] = Cytotoxicity against human HL60 cells after 72 hrs by WST-8 assay; format: functional; details: HL-60, 72 h
# [7] = system: A549; assay: Cytotoxicity against human A549 cells after 72 hrs by WST-8 assay; format: functional; details: A549, 72 h
# [8] = system: B16; assay: Cytotoxicity against mouse B16 cells after 72 hrs by WST-8 assay; format: functional; details: B16, 72 h
# [9] = Cytotoxicity against human KIM1 cells after 72 hrs by WST-8 assay; format: functional; details: KIM1, 72 h
# [10] = system: HeLa; assay: Cytotoxicity against human HeLa cells after 72 hrs by WST-8 assay; format: functional
# [11] = system: Daudi; assay: Cytotoxicity against human Daudi cells after 72 hrs by WST-8 assay; format: functional
# [12] = Antitumor activity against human HL60 cells xenografted in nude mouse assessed as inhibition of relative tumor growth at 30 mg/kg, po qd administered for 14 days; format: functional; details: HL-60, po, 336 h, read-out: TGI
# [13] = Cytotoxicity against human RPMI8226 cells after 72 hrs by WST-8 assay; format: functional; details: RPMI-8226, 72 h
# [14] = Cytotoxicity against human COLO205 cells after 72 hrs by WST-8 assay; format: functional; details: COLO 205, 72 h
# [15] = Antitumor activity against human HL60 cells xenografted in nude mouse assessed as inhibition of relative tumor growth at 10 mg/kg, po qd administered for 14 days; format: functional; details: HL-60, po, 336 h, read-out: TGI
# [16] = Cytotoxicity against human U87MG cells after 72 hrs by WST-8 assay; format: functional, U-87MG ATCC; details: U-87 MG
# [17] = Cytotoxicity against human U937 cells after 72 hrs by WST-8 assay; format: functional; details: U-937, 72 h
# [18] = system: LNCaP; assay: Cytotoxicity against human LNCAP cells after 72 hrs by WST-8 assay; format: functional
# [19] = target: Bromodomain-containing protein 3 (Homo sapiens) (UniProt Q15059); assay: Inhibition of Flag-tagged BRD3 (unknown origin)-biotinylated AcH4 (Lys5, 8, 12, 16) histone peptide binding expressed in CHO cells after 60 mins by TR-FRET assay; format: cell-based
# [20] = Cytotoxicity against human SKOV3 cells after 72 hrs by WST-8 assay; format: functional; details: SK-OV-3, 72 h
# [21] = target: Bromodomain-containing protein 2 (Homo sapiens) (UniProt P25440); assay: Inhibition of Flag-tagged BRD2 (unknown origin)-biotinylated AcH4 (Lys5, 8, 12, 16) histone peptide binding expressed in CHO cells after 60 mins by TR-FRET assay; format: cell-based
# [22] = system: Mus musculus; assay: Immunosuppressive activity in collagen-induced DBA/1J mouse arthritis model at 0.3 to 1 mg/kg, po administered for […] of immunization with bovine type II collagen measured at 21 to 42 days after primary immunization; format: functional, organism-based
# [23] = Cytotoxicity against human LN18 cells after 72 hrs by WST-8 assay; format: functional; details: LN-18, 72 h
# [24] = system: A2780; assay: Cytotoxicity against human A2780 cells after 72 hrs by WST-8 assay; format: functional; details: A2780, 72 h
# [25] = Antitumor activity against human HL60 cells xenografted in nude mouse assessed as inhibition of relative tumor growth at 10 mg/kg, po bid administered for 14 days; format: functional; details: HL-60, po, 336 h, read-out: TGI
# [26] = Cytotoxicity against human EBC1 cells after 72 hrs by WST-8 assay; format: functional; details: EBC-1, 72 h
# [27] = Cytotoxicity against human MV411 cells after 72 hrs by WST-8 assay; format: functional; details: MV4-11, 72 h
# [28] = Cytotoxicity against mouse LLC cells after 72 hrs by WST-8 assay; format: functional; details: Lewis lung carcinoma
# [29] = target: T1, Bromodomain-containing protein 4; assay: Inhibition of Flag-tagged BRD4 (unknown origin)-biotinylated AcH4 (Lys5, 8, 12, 16) histone peptide binding expressed in CHO cells after 60 mins by TR-FRET assay; format: cell-based
# Chain of Bromodomain-containing protein 2 (Homo sapiens) (P25440 whole entry, looked up): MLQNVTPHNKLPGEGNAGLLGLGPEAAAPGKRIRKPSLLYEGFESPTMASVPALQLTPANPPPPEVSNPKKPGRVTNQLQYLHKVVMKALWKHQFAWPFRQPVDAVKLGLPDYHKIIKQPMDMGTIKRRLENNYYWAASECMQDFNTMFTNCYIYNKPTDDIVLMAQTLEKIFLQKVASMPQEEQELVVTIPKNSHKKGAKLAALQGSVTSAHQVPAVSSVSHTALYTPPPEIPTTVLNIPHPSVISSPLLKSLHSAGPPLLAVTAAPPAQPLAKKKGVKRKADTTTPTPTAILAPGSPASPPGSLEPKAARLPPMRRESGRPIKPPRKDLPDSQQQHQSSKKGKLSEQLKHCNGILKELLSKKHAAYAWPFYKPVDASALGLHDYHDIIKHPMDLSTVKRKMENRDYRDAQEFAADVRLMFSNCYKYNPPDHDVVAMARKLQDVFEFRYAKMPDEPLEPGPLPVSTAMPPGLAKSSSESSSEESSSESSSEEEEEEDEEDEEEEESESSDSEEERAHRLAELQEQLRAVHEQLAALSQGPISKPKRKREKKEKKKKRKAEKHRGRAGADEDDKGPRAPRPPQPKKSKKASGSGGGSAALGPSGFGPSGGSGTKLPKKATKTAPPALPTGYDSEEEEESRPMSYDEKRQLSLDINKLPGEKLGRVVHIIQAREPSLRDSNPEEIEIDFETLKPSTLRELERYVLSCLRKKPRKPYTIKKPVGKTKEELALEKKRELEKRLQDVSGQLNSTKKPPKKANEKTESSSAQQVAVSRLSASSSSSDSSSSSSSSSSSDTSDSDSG
# Chain of Bromodomain-containing protein 3 (Homo sapiens) (Q15059 2-726 limits assumed): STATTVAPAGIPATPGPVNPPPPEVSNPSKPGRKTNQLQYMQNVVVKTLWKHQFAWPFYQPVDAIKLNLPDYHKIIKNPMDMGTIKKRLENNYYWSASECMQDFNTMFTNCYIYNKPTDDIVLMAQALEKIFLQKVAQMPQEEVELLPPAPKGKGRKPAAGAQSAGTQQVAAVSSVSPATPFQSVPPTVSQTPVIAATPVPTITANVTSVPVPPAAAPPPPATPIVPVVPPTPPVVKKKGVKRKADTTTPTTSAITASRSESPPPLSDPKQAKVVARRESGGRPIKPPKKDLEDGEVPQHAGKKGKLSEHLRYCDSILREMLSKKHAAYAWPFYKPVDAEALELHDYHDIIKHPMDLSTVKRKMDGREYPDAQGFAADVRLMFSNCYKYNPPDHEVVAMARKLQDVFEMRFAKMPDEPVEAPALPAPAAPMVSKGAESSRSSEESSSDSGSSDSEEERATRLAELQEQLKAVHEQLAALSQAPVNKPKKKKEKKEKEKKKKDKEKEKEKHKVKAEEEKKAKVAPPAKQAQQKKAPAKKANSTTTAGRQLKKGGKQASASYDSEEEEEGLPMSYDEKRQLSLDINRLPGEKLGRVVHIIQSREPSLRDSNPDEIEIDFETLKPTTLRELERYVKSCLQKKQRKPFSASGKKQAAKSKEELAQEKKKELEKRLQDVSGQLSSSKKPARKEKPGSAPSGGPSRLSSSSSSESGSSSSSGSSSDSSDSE
smiles,measurement,setting,value
Cc1sc2c(c1C)C(c1ccc(Cl)cc1)=NC(Cc1ccccc1)c1nnc(C)n1-2 (racemic),IC50,[1],500 nM
COC(=O)C[C@@H]1N=C(c2ccc(-c3cccc(S(C)(=O)=O)c3)cc2)c2c(sc(C)c2C)-n2c(C)nnc21,IC50,[1],9.8 nM
COCC[C@@H]1N=C(c2ccc(Cl)cc2)c2c(sc(C)c2C)-n2c(C)nnc21,IC50,[1],390 nM
Cc1sc2c(c1C)C(c1ccc(Cl)cc1)=N[C@@H](CC(=O)OCc1ccccc1)c1nnc(C)n1-2,IC50,[1],36 nM
Cc1sc2c(c1C)C(c1ccc(Cl)cc1)=NC(C)c1nnc(C)n1-2 (racemic),IC50,[1],390 nM
COC(=O)C[C@@H]1N=C(c2ccc(-c3ccccc3OC)cc2)c2c(sc(C)c2C)-n2c(C)nnc21,IC50,[1],190 nM
Cc1sc2c(c1C)C(c1ccc(Cl)cc1)=NC(Cc1cccnc1)c1nnc(C)n1-2 (racemic),IC50,[1],400 nM
Cc1sc2c(c1C)C(c1ccc(Cl)cc1)=NC(Cc1ccncc1)c1nnc(C)n1-2 (racemic),IC50,[1],240 nM
Cc1sc2c(c1C)C(c1ccc(Cl)cc1)=NCc1nnc(C)n1-2,IC50,[1],2500 nM
Cc1sc2c(c1C)C(c1ccc(Cl)cc1)=NC(CCc1ccccc1)c1nnc(C)n1-2 (racemic),IC50,[1],2680 nM
CCCOC(=O)C[C@@H]1N=C(c2ccc(Cl)cc2)c2c(sc(C)c2C)-n2c(C)nnc21,IC50,[1],30 nM
Cc1sc2c(c1C)C(c1ccc(Cl)cc1)=NC(Cc1ccccn1)c1nnc(C)n1-2 (racemic),IC50,[1],330 nM
COC(=O)C[C@@H]1N=C(c2ccc(Cl)cc2)c2c(sc(C)c2C)-n2c(C)nnc21,IC50,[1],38 nM
CCOC(=O)C[C@@H]1N=C(c2ccc(Cl)cc2)c2c(sc(C)c2C)-n2c(C)nnc21,IC50,[1],12 nM
Cc1sc2c(c1C)C(c1ccc(Cl)cc1)=N[C@@H](CCO)c1nnc(C)n1-2,IC50,[1],580 nM
CCC1N=C(c2ccc(Cl)cc2)c2c(sc(C)c2C)-n2c(C)nnc21 (racemic),IC50,[1],340 nM
COC(=O)C[C@H]1N=C(c2ccc(Cl)cc2)c2c(sc(C)c2C)-n2c(C)nnc21,IC50,[1],> 10000 nM
COC(=O)C[C@@H]1N=C(c2ccc(-c3cccc(O)c3)cc2)c2c(sc(C)c2C)-n2c(C)nnc21,IC50,[1],32 nM
Cc1sc2c(c1C)C(c1ccc(Cl)cc1)=N[C@@H](CC(=O)OC(C)(C)C)c1nnc(C)n1-2,IC50,[1],110 nM
COC(=O)C[C@@H]1N=C(c2ccc(-c3ccc(OC)cc3)cc2)c2c(sc(C)c2C)-n2c(C)nnc21,IC50,[1],53 nM
COC(=O)C[C@@H]1N=C(c2ccc(-c3ccc(C#N)cc3)cc2)c2c(sc(C)c2C)-n2c(C)nnc21,IC50,[1],33 nM
COC(=O)C[C@H]1N=C(c2ccc(-c3cccc(C#N)c3)cc2)c2c(sc(C)c2C)-n2c(C)nnc21,inhibition,[2],inactive
same,inhibition,[3],inactive
same,inhibition,[4],inactive
COC(=O)C[C@@H]1N=C(c2ccc(-c3cccc(OC(F)(F)F)c3)cc2)c2c(sc(C)c2C)-n2c(C)nnc21,IC50,[1],160 nM
COC(=O)C[C@@H]1N=C(c2ccc(-c3cccc(OC)c3)cc2)c2c(sc(C)c2C)-n2c(C)nnc21,IC50,[1],36 nM
COC(=O)C[C@@H]1N=C(c2ccc(-c3cccc(C#N)c3)cc2)c2c(sc(C)c2C)-n2c(C)nnc21,GI50,[5],3 nM
same,GI50,[6],7 nM
same,GI50,[7],> 10000 nM
same,inhibition,[2],Dose-dependent effect
same,inhibition,[3],Dose-dependent effect
same,GI50,[8],80 nM
same,GI50,[9],104 nM
same,GI50,[10],274 nM
same,GI50,[11],67 nM
same,inhibition in vivo at 30 mg/kg,[12],65%
same,GI50,[13],69 nM
same,inhibition,[4],Dose-dependent effect
same,GI50,[14],484 nM
same,inhibition in vivo at 10 mg/kg,[15],43%
same,GI50,[16],> 10000 nM
same,GI50,[17],829 nM
same,GI50,[18],201 nM
same,inhibition,[19],Active
same,GI50,[20],5270 nM
same,inhibition,[21],Active
same,Activity,[22],Active
same,GI50,[23],207 nM
same,GI50,[24],130 nM
same,inhibition in vivo at 10 mg/kg,[25],80%
same,GI50,[26],207 nM
same,IC50,[1],26 nM
same,GI50,[27],19 nM
same,GI50,[28],1500 nM
same,IC50,[29],33.9 nM
COC(=O)C[C@@H]1N=C(c2ccc(-c3ccc(O)c(C#N)c3)cc2)c2c(sc(C)c2C)-n2c(C)nnc21,IC50,[1],2.5 nM
COC(=O)C[C@@H]1N=C(c2ccc(-c3cccc(C(C)=O)c3)cc2)c2c(sc(C)c2C)-n2c(C)nnc21,IC50,[1],15 nM
Cc1sc2c(c1C)C(c1ccc(Cl)cc1)=N[C@@H](CC(=O)OC(C)C)c1nnc(C)n1-2,IC50,[1],44 nM
COC(=O)C[C@@H]1N=C(c2ccc(-c3ccccc3C#N)cc2)c2c(sc(C)c2C)-n2c(C)nnc21,IC50,[1],180 nM
COC(=O)CC1N=C(c2ccc(-c3ccccc3)cc2)c2c(sc(C)c2C)-n2c(C)nnc21 (racemic),IC50,[1],220 nM
COC(=O)C[C@@H]1N=C(c2ccc(-c3cccc(NC(C)=O)c3)cc2)c2c(sc(C)c2C)-n2c(C)nnc21,IC50,[1],27 nM
Cc1sc2c(c1C)C(c1ccc(Cl)cc1)=N[C@@H](CCC#N)c1nnc(C)n1-2,IC50,[1],100 nM

# — ChEMBL document CHEMBL3769406, “A phenotypic drug discovery study on thienodiazepine derivatives as inhibitors of T cell proliferation induced by CD28 co-stimulation leads to the discovery of a first bromodomain inhibitor” (Bioorg Med Chem Lett, 2016)
